In the kinase profiling compilation of Christmann-Franck et al. (2016):

How the values were obtained:
Assay in all cases: KINOMEscan competition binding
Settings in all cases: compound 10.0 µM
ACVRL1 (human) = ACVRL1 (human) (UniProt P37023)
ALK (human) = ALK (human) (UniProt Q9UM73)
AXL (human) = AXL (human) (UniProt P30530)
CDK14 (human) = CDK14 (human) (UniProt O94921)
CDK17 (human) = CDK17 (human) (UniProt Q00537)
CDKL1 (human) = CDKL1 (human) (UniProt Q00532)
CDKL5 (human) = CDKL5 (human) (UniProt O76039)
CSNK1G1 (human) = CSNK1G1 (human) (UniProt Q9HCP0)
CSNK2A2 (human) = CSNK2A2 (human) (UniProt P19784)
CSNK2A2 (human), sequence (P19784 whole entry, looked up): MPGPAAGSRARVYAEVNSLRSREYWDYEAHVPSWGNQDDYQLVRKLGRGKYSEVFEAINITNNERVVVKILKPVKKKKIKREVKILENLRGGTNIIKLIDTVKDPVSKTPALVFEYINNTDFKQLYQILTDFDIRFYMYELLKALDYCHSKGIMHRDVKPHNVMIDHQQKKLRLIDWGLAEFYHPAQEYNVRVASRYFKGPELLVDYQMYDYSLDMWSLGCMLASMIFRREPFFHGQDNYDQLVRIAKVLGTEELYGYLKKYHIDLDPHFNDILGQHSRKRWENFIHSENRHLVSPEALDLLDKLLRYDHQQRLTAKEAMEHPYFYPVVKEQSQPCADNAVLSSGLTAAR

DAPK2 (human) = DAPK2 (human) (UniProt Q9UIK4)
[1] = test system: EGFR (human), P00533 [G719S]
[2] = test system: EIF2AK4 KD2 (human), Q9P2K8 [S808G]
EPHA5 (human) = EPHA5 (human) (UniProt P54756)
FGFR1 (human) = FGFR1 (human) (UniProt P11362)
FLT1 (human) = FLT1 (human) (UniProt P17948)
GSK3A (human) = GSK3A (human) (UniProt P49840)
GSK3A (human), sequence (P49840 whole entry, looked up): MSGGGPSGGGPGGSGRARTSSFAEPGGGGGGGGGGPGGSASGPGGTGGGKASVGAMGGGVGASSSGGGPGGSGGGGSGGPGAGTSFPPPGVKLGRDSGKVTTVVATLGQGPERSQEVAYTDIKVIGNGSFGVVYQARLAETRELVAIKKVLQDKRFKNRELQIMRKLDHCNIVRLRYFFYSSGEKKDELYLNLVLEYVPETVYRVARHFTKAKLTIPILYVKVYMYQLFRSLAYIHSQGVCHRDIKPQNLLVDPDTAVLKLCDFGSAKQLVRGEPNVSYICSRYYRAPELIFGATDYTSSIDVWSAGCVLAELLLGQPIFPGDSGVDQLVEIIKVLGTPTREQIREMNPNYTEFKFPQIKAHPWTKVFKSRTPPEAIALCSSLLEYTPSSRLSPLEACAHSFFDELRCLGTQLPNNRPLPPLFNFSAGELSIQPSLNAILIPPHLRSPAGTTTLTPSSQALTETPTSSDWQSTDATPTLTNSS

[3] = molecular target: JAK1 JH2 pseudokinase (human) (UniProt P23458)
[4] = molecular target: JAK2 JH1 catalytic (human) (UniProt O60674)
KDR (human) = KDR (human) (UniProt P35968)
LYN (human) = LYN (human) (UniProt P07948)
MAP2K5 (human) = MAP2K5 (human) (UniProt Q13163)
MAP3K11 (human) = MAP3K11 (human) (UniProt Q16584)
MINK1 (human) = MINK1 (human) (UniProt Q8N4C8)
MYO3A (human) = MYO3A (human) (UniProt Q8NEV4)
MYO3A (human), sequence (Q8NEV4 whole entry, looked up): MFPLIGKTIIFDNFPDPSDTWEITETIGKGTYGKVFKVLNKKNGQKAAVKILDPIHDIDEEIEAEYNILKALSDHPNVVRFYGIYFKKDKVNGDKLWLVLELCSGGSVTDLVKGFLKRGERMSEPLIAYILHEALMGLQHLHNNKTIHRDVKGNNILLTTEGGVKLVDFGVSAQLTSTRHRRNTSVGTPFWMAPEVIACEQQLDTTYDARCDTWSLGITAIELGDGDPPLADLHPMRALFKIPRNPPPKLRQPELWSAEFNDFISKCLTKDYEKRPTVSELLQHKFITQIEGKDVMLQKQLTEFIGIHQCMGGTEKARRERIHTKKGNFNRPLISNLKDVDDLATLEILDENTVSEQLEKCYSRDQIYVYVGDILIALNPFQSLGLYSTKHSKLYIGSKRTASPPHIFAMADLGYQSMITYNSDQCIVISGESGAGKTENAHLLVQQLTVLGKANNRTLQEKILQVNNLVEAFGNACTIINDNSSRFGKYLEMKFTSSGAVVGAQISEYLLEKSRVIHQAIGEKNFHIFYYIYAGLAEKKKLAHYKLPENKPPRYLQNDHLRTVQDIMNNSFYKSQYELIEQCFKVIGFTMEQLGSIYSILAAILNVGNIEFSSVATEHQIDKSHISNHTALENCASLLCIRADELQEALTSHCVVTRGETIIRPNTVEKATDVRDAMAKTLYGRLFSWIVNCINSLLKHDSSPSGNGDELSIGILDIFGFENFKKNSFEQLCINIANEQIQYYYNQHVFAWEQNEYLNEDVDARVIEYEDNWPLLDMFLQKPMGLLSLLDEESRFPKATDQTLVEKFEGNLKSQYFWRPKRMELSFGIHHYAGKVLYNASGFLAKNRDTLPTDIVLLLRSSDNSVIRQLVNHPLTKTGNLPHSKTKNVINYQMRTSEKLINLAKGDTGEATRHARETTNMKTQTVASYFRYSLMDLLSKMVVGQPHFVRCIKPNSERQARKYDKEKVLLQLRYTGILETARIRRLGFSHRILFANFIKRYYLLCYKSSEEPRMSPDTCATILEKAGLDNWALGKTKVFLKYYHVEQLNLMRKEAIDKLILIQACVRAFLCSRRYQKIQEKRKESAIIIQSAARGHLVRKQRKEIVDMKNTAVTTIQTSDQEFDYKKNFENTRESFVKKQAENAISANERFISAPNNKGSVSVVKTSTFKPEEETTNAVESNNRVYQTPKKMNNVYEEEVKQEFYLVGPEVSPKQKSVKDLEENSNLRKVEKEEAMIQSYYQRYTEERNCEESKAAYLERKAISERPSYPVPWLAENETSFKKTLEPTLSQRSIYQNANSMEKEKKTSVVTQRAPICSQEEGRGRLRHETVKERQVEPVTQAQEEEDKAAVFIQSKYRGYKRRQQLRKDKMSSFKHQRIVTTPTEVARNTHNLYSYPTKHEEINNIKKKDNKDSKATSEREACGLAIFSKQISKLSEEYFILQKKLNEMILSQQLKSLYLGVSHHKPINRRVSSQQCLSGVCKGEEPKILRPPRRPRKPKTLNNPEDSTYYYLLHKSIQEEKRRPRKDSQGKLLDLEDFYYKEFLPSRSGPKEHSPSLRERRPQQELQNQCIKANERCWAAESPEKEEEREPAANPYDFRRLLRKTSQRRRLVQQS

NIM1 (human) = NIM1 (human) (UniProt Q8IY84)
[5] = test system: PIK3CA (human), P42336 [I800L]
PIK3CB (human) = PIK3CB (human) (UniProt P42338)
PIP4K2B (human) = PIP4K2B (human) (UniProt P78356)
PKN1 (human) = PKN1 (human) (UniProt Q16512)
PKN1 (human), sequence (Q16512 whole entry, looked up): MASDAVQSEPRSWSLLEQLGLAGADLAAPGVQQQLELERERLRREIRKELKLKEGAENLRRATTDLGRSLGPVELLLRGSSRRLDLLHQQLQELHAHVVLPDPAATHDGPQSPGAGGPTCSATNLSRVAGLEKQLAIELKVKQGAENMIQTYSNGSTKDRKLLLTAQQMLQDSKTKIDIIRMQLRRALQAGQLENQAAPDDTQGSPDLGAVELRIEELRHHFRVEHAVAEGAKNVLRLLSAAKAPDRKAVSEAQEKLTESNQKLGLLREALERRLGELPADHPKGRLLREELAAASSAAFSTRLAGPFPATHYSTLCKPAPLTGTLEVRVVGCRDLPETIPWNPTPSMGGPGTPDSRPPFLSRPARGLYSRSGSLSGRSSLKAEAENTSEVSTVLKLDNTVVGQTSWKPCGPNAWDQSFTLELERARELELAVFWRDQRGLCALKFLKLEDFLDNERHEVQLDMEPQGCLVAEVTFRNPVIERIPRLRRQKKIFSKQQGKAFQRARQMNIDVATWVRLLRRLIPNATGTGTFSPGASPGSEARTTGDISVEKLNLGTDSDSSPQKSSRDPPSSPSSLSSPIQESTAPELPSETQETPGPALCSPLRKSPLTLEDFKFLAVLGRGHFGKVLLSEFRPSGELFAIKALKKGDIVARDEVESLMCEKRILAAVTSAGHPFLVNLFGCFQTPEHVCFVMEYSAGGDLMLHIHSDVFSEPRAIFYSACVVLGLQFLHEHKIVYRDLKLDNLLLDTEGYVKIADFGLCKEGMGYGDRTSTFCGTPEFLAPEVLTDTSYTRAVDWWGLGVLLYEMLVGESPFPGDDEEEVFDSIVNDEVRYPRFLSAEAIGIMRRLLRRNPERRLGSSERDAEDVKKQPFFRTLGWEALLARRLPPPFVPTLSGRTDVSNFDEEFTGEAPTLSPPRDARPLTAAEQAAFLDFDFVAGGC

PLK2 (human) = PLK2 (human) (UniProt Q9NYY3)
PLK4 (human) = PLK4 (human) (UniProt O00444)
PRKCH (human) = PRKCH (human) (UniProt P24723)
PRKD1 (human) = PRKD1 (human) (UniProt Q15139)
PRKX (human) = PRKX (human) (UniProt P51817)
RPS6KA1 KD2 (human) = RPS6KA1 KD2 (human) (UniProt Q15418)
RPS6KB1 (human) = RPS6KB1 (human) (UniProt P23443)
RPS6KB1 (human), sequence (P23443 whole entry, looked up): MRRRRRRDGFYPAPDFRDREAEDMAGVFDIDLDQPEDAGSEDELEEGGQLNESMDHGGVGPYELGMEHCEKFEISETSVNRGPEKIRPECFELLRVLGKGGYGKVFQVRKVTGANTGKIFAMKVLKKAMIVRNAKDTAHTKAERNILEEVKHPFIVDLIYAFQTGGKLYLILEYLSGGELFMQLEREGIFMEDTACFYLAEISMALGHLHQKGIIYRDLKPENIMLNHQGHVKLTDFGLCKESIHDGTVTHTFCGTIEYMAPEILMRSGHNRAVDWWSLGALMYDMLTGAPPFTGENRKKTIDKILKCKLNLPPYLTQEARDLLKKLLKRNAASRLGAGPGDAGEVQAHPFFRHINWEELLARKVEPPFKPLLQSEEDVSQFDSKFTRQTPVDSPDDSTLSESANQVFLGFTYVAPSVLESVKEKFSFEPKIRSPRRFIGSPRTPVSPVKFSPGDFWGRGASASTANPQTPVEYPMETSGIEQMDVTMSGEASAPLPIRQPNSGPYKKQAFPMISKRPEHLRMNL

SIK2 (human) = SIK2 (human) (UniProt Q9H0K1)
TIE1 (human) = TIE1 (human) (UniProt P35590)
TNK1 (human) = TNK1 (human) (UniProt Q13470)
TNK2 (human) = TNK2 (human) (UniProt Q07912)

AXL (human), sequence (P30530 whole entry, looked up): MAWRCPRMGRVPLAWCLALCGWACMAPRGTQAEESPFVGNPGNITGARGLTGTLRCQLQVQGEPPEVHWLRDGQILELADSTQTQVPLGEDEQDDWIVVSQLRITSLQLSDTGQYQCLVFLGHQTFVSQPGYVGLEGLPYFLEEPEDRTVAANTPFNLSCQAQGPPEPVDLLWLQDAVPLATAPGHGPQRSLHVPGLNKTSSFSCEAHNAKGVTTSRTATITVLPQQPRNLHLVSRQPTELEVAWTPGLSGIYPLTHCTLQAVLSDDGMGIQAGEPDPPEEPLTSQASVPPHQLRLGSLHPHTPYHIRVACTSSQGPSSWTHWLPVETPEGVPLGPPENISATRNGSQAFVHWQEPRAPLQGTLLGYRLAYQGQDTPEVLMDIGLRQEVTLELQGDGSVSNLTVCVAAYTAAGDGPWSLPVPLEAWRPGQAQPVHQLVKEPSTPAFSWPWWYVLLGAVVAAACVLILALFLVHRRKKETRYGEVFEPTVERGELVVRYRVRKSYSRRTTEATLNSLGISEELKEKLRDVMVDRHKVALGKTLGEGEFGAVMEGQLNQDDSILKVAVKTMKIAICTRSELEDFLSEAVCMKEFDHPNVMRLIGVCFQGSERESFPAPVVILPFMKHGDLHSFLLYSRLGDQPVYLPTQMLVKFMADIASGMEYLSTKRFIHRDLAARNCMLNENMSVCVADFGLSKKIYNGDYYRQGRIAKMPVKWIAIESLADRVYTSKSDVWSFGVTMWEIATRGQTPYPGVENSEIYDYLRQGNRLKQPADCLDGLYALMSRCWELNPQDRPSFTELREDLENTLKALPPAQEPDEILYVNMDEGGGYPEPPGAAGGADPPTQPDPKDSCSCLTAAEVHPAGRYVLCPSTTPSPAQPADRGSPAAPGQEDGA

What does the source list for `CCCS(=O)(=O)Nc1ccc(F)c(C(=O)c2c[nH]c3ncc(-c4ccc(Cl)cc4)cc23)c1F`?
kinase still bound, per cent of control (ACVRL1 (human)): 65%; kinase still bound, per cent of control (ALK (human)): 62%; kinase still bound, per cent of control (AXL (human)): 8.4%; kinase still bound, per cent of control (CDK14 (human)): 100%; kinase still bound, per cent of control (CDK17 (human)): 86%; kinase still bound, per cent of control (CDKL1 (human)): 100%; kinase still bound, per cent of control (CDKL5 (human)): 100%; kinase still bound, per cent of control (CSNK1G1 (human)): 100%; kinase still bound, per cent of control (CSNK2A2 (human)): 100%; kinase still bound, per cent of control (DAPK2 (human)): 95%; kinase still bound, per cent of control [1]: 50%; kinase still bound, per cent of control [2]: 0.55%; kinase still bound, per cent of control (EPHA5 (human)): 98%; kinase still bound, per cent of control (FGFR1 (human)): 49%; kinase still bound, per cent of control (FLT1 (human)): 43%; kinase still bound, per cent of control (GSK3A (human)): 54%; kinase still bound, per cent of control [3]: 100%; kinase still bound, per cent of control [4]: 84%; kinase still bound, per cent of control (KDR (human)): 31%; kinase still bound, per cent of control (LYN (human)): 16%; kinase still bound, per cent of control (MAP2K5 (human)): 0.15%; kinase still bound, per cent of control (MAP3K11 (human)): 81%; kinase still bound, per cent of control (MINK1 (human)): 38%; kinase still bound, per cent of control (MYO3A (human)): 57%; kinase still bound, per cent of control (NIM1 (human)): 100%; kinase still bound, per cent of control [5]: 93%; kinase still bound, per cent of control (PIK3CB (human)): 100%; kinase still bound, per cent of control (PIP4K2B (human)): 100%; kinase still bound, per cent of control (PKN1 (human)): 78%; kinase still bound, per cent of control (PLK2 (human)): 97%; kinase still bound, per cent of control (PLK4 (human)): 48%; kinase still bound, per cent of control (PRKCH (human)): 100%; kinase still bound, per cent of control (PRKD1 (human)): 8.2%; kinase still bound, per cent of control (PRKX (human)): 100%; kinase still bound, per cent of control (RPS6KA1 KD2 (human)): 59%; kinase still bound, per cent of control (RPS6KB1 (human)): 86%; kinase still bound, per cent of control (SIK2 (human)): 61%; kinase still bound, per cent of control (TIE1 (human)): 38%; kinase still bound, per cent of control (TNK1 (human)): 100%; kinase still bound, per cent of control (TNK2 (human)): 6.9%
